According to patent US11369113B2, “Vector control compositions, methods and products utilizing same” (Syngenta Participations AG, priority 2017, dated 2022):
Read-outs that look alike come from different tables or passages of the source.

Legend:
Format in all cases: in vivo
[1] = system: VK7 2014 (An. coluzzii, DDT & pyrethroid resistant); assay: Example B4: bottle based cross resistance study (CDC bottle assay), strain VK7 2014; parameters: unit not given here; details: 1 h bottle exposure
Description: (§1) Based on the “CDC bottle assay” (described at http://www.cdc.gov/malaria/resources/pdf/fsp/ir_manual/ir_cdc_bioassay_en.pdf) 1 ml of ethanol containing a test compound at a defined concentration was added to a 250 ml glass bottle and the bottles were placed on a rolling table to coat the inner surfaces as the solvent evaporated. Once dry, twenty five non-blood fed adult female mosquitoes of the appropriate species and strains (each three day old) were aspirated from the stock culture and gently blown into the exposure bottles. The lid of the bottle was replaced and the bottle placed upright out of direct sun light under standard culture conditions, nominally 26° C. and 60-80% relative humidity.
(§2) A stopwatch was started, and the assessment of the knock-down were made after 15 mins and 60 minutes. A mosquito was said to be knocked down if it was unable to stand, following the CDC definition. The bottles were replaced in an upright position when not being assessed.
(§3) After one hour the mosquitoes were carefully removed from the bottle with an aspirator and placed in a recovery cup. The mosquitoes were supplied with a 10% sucrose solution on a cotton wool bung, and stored under culture conditions. Assessments of the mortality were made after 24 hours.
(§4) Each treatment was replicated a minimum of three times, with the exception of the Banfora strain, where only a single replicate was undertaken, with the mean knockdown or mortality recorded. In each study, a set of bottles was infested with a known insecticide susceptible strain of mosquitoes from the same genera as the resistant strains.

[2] = system: Tiassalé 13 (An. gambiae, pyrethroid resistant); assay: Example B4: bottle based cross resistance study (CDC bottle assay), strain Tiassalé 13; details: Anopheles gambiae, read-out: mean knockdown or mortality (Table B4 does not name the quantity)
Description: as §1, §2, §3, §4

[3] = system: Banfora (An. gambiae, DDT & pyrethroid resistant); assay: Example B4: bottle based cross resistance study (CDC bottle assay), strain Banfora; details: Anopheles gambiae, read-out: knockdown or mortality (Table B4 does not name the quantity)
Description: as §1, §2, §3, §4

[4] = system: Kisumu sus (Anopheles gambiae, susceptible); assay: Example B4: bottle based cross resistance study (CDC bottle assay), strain Kisumu sus; details: read-out: mean knockdown or mortality (Table B4 does not name the quantity)
Description: as §1, §2, §3, §4

[5] = system: Aedes aegypti (Yellow Fever Mosquito); assay: whole plant or invertebrate; details: for mortality at 0.2 ppm / mortality at 2 ppm / mortality at 20 ppm: Aedes aegypti
Description: […] Once the deposits were dry, five non-blood fed adult female Aedes aegypti (between two to five day old) were added to each well, and sustained with a 10% sucrose solution in a cotton wool plug. Assessment of the knockdown was carried our after 1 hour, and mortality after 24 hours and 48 hours.

[6] = system: Anopheles stephensi (Indian Malaria Mosquito); assay: Example B2: treated 12-well plate contact test, adult female Anopheles stephensi; details: for mortality at 0.2 ppm / mortality at 2 ppm / mortality at 20 ppm: Anopheles stephensi
Description: […] Once the deposits were dry, five non-blood fed adult female Anopheles stephensi (between two to five day old) were added to each well, and sustained with a 10% sucrose solution in a cotton wool plug. Assessment of the knockdown was carried our after 1 hour, and mortality after 24 hours and 48 hours.

Anopheles stephensi = assay: Example B3: treated 6-well plate contact test, adult female Anopheles stephensi; details: for mortality at 0.3125 ppm / mortality at 0.625 ppm / mortality at 1.25 ppm / mortality at 2.5 ppm: Anopheles stephensi; for Knockdown 1 h: mean of two replicates
Description: The individual wells of six (6) well tissue culture plates were treated with 250 μl of an ethanol solution containing a test compound at a defined concentration. Once the deposits were dry, ten non-blood fed adult female Anopheles stephensi (each between two to five day old) were added to each well, and sustained with a 10% sucrose solution in a cotton wool plug. Assessment of the knockdown was carried our after 1 hour, and mortality after 24 hours and 48 hours. Each treatment was replicated twice, with the mean mortality recorded.

[7] = 0.2 ppm, 24 h, read-out: adult mortality 24 h
[8] = 0.2 ppm, 48 h, read-out: adult mortality 48 h
[9] = 2 ppm, 24 h, read-out: adult mortality 24 h
[10] = 2 ppm, 48 h, read-out: adult mortality 48 h
[11] = 20 ppm, 24 h, read-out: adult mortality 24 h
[12] = 20 ppm, 48 h, read-out: adult mortality 48 h
[13] = 24 h, read-out: adult mortality 24 h
[14] = 48 h, read-out: adult mortality 48 h
[15] = Tiassalé 13, rate 6.25 ppm, 1 h bottle exposure
[16] = Tiassalé 13, rate 12.5 ppm, 1 h bottle exposure
[17] = Tiassalé 13, rate 25 ppm, 1 h bottle exposure
[18] = Banfora, rate 6.25 ppm, 1 h bottle exposure, single replicate
[19] = Banfora, rate 12.5 ppm, 1 h bottle exposure, single replicate
[20] = Banfora, rate 25 ppm, 1 h bottle exposure, single replicate

## CC1(C)C(C=C(Cl)Cl)C1C(=O)OCc1cccc(Oc2ccccc2)c1 (stereo not drawn) [Permethrin]
[1]; VK7 2014, rate 6.25 ppm
  mean knockdown or mortality (Table B4 does not name the quantity): 5
[1]; VK7 2014, rate 12.5 ppm
  mean knockdown or mortality (Table B4 does not name the quantity): 3
[1]; VK7 2014, rate 25 ppm
  mean knockdown or mortality (Table B4 does not name the quantity): 7
[2]; 1 h
  mean knockdown or mortality at 6.25 ppm: 13%
  mean knockdown or mortality at 12.5 ppm: 45%
  mean knockdown or mortality at 25 ppm: 69%
[3]; 1 h
  knockdown or mortality (%) at 6.25 ppm: 14%
  knockdown or mortality (%) at 12.5 ppm: 38%
  knockdown or mortality (%) at 25 ppm: 45%
[4]; 1 h
  percent knockdown or mortality at 5 ppm: 100%
  percent knockdown or mortality at 10 ppm: 100%
  percent knockdown or mortality at 20 ppm: 100%

## CO/C=C(/C(=O)OC)c1ccccc1Oc1ncc(C(F)(F)F)s1 [Compound of formula II, Methyl (E)-3-methoxy-2-[2-[5-(trifluoromethyl)thiazol-2-yl]oxyphenyl]-prop-2-enoate]
[5]; 0.2 ppm
  adult knockdown 1 h: 0
[5]; 2 ppm
  adult knockdown 1 h: 0
[5]; 20 ppm
  adult knockdown 1 h: 100
[5]; [7]
  mortality at 0.2 ppm: 0%
[5]; [8]
  mortality at 0.2 ppm: 0%
[5]; [9]
  mortality at 2 ppm: 0%
[5]; [10]
  mortality at 2 ppm: 0%
[5]; [11]
  mortality at 20 ppm: 100%
[5]; [12]
  mortality at 20 ppm: 100%
[6]; 0.2 ppm
  adult knockdown 1 h: 0
[6]; 2 ppm
  adult knockdown 1 h: 0
[6]; 20 ppm
  adult knockdown 1 h: 100
[6]; [13]
  mortality at 0.2 ppm: 0%
  mortality at 2 ppm: 80%
  mortality at 20 ppm: 100%
[6]; [14]
  mortality at 0.2 ppm: 0%
  mortality at 2 ppm: 100%
  mortality at 20 ppm: 100%
Anopheles stephensi; 24 h, read-out: Mortality 24 h
  mortality at 0.3125 ppm: 15%
  mortality at 0.625 ppm: 33%
  mortality at 1.25 ppm: 83%
  mortality at 2.5 ppm: 93%
Anopheles stephensi; 48 h, read-out: Mortality 48 h
  mortality at 0.3125 ppm: 22%
  mortality at 0.625 ppm: 30%
  mortality at 1.25 ppm: 88%
  mortality at 2.5 ppm: 97%
Anopheles stephensi; rate 0.3125 ppm
  Knockdown 1 h: 13
Anopheles stephensi; rate 0.625 ppm
  Knockdown 1 h: 27
Anopheles stephensi; rate 1.25 ppm
  Knockdown 1 h: 48
Anopheles stephensi; rate 2.5 ppm
  Knockdown 1 h: 73
[1]; VK7 2014, rate 6.25 ppm
  mean knockdown or mortality (Table B4 does not name the quantity): 7
[1]; VK7 2014, rate 12.5 ppm
  mean knockdown or mortality (Table B4 does not name the quantity): 18
[1]; VK7 2014, rate 25 ppm
  mean knockdown or mortality (Table B4 does not name the quantity): 100
[2]; [15]
  mean knockdown or mortality at 6.25 ppm: 55%
[2]; [16]
  mean knockdown or mortality at 12.5 ppm: 46%
[2]; [17]
  mean knockdown or mortality at 25 ppm: 100%
[3]; [18]
  knockdown or mortality (%) at 6.25 ppm: 13%
[3]; [19]
  knockdown or mortality (%) at 12.5 ppm: 33%
[3]; [20]
  knockdown or mortality (%) at 25 ppm: 100%
[4]; 1 h
  percent knockdown or mortality at 6.25 ppm: 61%
  percent knockdown or mortality at 12.5 ppm: 33%
  percent knockdown or mortality at 25 ppm: 100%

## CO/C=C(/C(=O)OC)c1ccccc1Oc1nc(Cl)c(C(F)(F)F)s1 [Compound of formula I, Methyl (E)-2-[2-[4-chloro-5-(trifluoromethyl)thiazol-2-yl]oxyphenyl]-3-methoxy-prop-2-enoate]
[5]; 0.2 ppm
  adult knockdown 1 h: 0
[5]; 2 ppm
  adult knockdown 1 h: 20
[5]; 20 ppm
  adult knockdown 1 h: 100
[5]; [7]
  mortality at 0.2 ppm: 20%
[5]; [8]
  mortality at 0.2 ppm: 20%
[5]; [9]
  mortality at 2 ppm: 60%
[5]; [10]
  mortality at 2 ppm: 80%
[5]; [11]
  mortality at 20 ppm: 100%
[5]; [12]
  mortality at 20 ppm: 100%
[6]; 0.2 ppm
  adult knockdown 1 h: 0
[6]; 2 ppm
  adult knockdown 1 h: 80
[6]; 20 ppm
  adult knockdown 1 h: 100
[6]; [13]
  mortality at 0.2 ppm: 20%
  mortality at 2 ppm: 100%
  mortality at 20 ppm: 100%
[6]; [14]
  mortality at 0.2 ppm: 20%
  mortality at 2 ppm: 100%
  mortality at 20 ppm: 100%
Anopheles stephensi; 24 h, read-out: Mortality 24 h
  mortality at 0.3125 ppm: 63%
  mortality at 0.625 ppm: 80%
  mortality at 1.25 ppm: 98%
  mortality at 2.5 ppm: 100%
Anopheles stephensi; 48 h, read-out: Mortality 48 h
  mortality at 0.3125 ppm: 65%
  mortality at 0.625 ppm: 82%
  mortality at 1.25 ppm: 100%
  mortality at 2.5 ppm: 100%
Anopheles stephensi; rate 0.3125 ppm
  Knockdown 1 h: 20
Anopheles stephensi; rate 0.625 ppm
  Knockdown 1 h: 43
Anopheles stephensi; rate 1.25 ppm
  Knockdown 1 h: 70
Anopheles stephensi; rate 2.5 ppm
  Knockdown 1 h: 87
[1]; VK7 2014, rate 6.25 ppm
  mean knockdown or mortality (Table B4 does not name the quantity): 10
[1]; VK7 2014, rate 12.5 ppm
  mean knockdown or mortality (Table B4 does not name the quantity): 61
[1]; VK7 2014, rate 25 ppm
  mean knockdown or mortality (Table B4 does not name the quantity): 100
[2]; [15]
  mean knockdown or mortality at 6.25 ppm: 69%
[2]; [16]
  mean knockdown or mortality at 12.5 ppm: 81%
[2]; [17]
  mean knockdown or mortality at 25 ppm: 100%
[3]; [18]
  knockdown or mortality (%) at 6.25 ppm: 26%
[3]; [19]
  knockdown or mortality (%) at 12.5 ppm: 52%
[3]; [20]
  knockdown or mortality (%) at 25 ppm: 100%
[4]; Kisumu sus, rate 6.25 ppm, 1 h bottle exposure
  percent knockdown or mortality at 6.25 ppm: 74%
[4]; Kisumu sus, rate 12.5 ppm, 1 h bottle exposure
  percent knockdown or mortality at 12.5 ppm: 99%
[4]; Kisumu sus, rate 25 ppm, 1 h bottle exposure
  percent knockdown or mortality at 25 ppm: 100%
